In US20150031102A1, “METHODS AND COMPOSITIONS FOR ENHANCED PRODUCTION OF BUTANOL BY CLOSTRIDIA” (Butrolix LLC, priority 2012, published 2015):
Marks after values point to notes of the source that are not given here.

System: C. acetobutylicum
Experiment: Continuous culture, 2.5 L, dilution rate 0.01 per hour, 20 days (butanol, residual glucose, optical density, pH, yield, productivity)
Assay type: cell-based, Clostridium acetobutylicum
Conditions: for Optical density (600 nm): 50 nM BP110517 and its control; for Productivity / Yield / Butanol: 50 nM peptide, Table 53; for Butanol: average ± SD of triplicate samples; for Average Butanol / Average Glucose: Treated (50 nM)
Protocol: Lastly, 2.5 L continuous culture studies were conducted using the optimum peptide treatment level that was determined by the sequential batch transfer experiments. An untreated and a peptide-treated culture were grown in parallel, identical vessels with identical dilution rates for 20 days. The continuous cultures were initiated by inoculating 2.25 L of sterile medium in each culture vessel using 250 mL of peptide-treated and untreated batch cultures that had been grown for 24 hours. The batch cultures used as inoculum were the third of sequential batch transfer cultures, which made inoculation of the continuous cultures the fourth sequential transfer. After inoculation, the continuous cultures were grown for 24 hours before beginning to feed fresh medium at a rate of 0.01 volumes per hour. Triplicate samples were taken from each continuous culture every 24 hours. Optical density of the replicates was measured and culture supernatants were recovered following centrifugation and analyzed later for butanol and residual glucose concentrations. The analyses were used to calculate yield and productivity of the cultures.
Clostridium acetobutylicum strain ATCC 824 was used in all experiments and the growth medium used for sequential batch transfer, time course, and continuous culture experiments contained yeast extract, casamino acids, L-cysteine, L-asparagine, phosphate buffer, trace minerals, and 6% glucose. What are believed to be quorum-sensing peptides that were used in the experiments were chemically synthesized peptides SEQ ID NO: 143 (amino acid sequence: SYPGWSW) and SEQ ID NO: 144 (amino acid sequence: ILILISG). Routine growth of the bacteria as well as the sequential batch and time course experiments were conducted in a Form a Scientific Model 1029 anaerobic gas chamber at 32° C. Continuous cultures were performed at 32° C. using duplicate New Brunswick Scientific BioFlo 3000 apparati with a dilution rate of 0.01 volume per hour, 75 rpm agitation, and nitrogen gas sparging. Optical density of culture samples was measured at 600 nm in a Beckman DU 600 series spectrophotometer and glucose was analyzed using a YSI Model 2700 Select Biochemistry Analyzer with internal glucose calibration. Butanol concentrations were determined by measuring experimental and standard samples using a Varian Saturn 3 Gas Chromatograph/Mass Spectrometer and calculating butanol concentrations using standard curves.
Data from continuous cultures using a 6% glucose medium in vessels with a working volume of 2.5 L run at a dilution rate of 0.01 per hour. Two vessels were run in parallel, one of which was treated with 50 nM of peptide SEQ ID NO: 143 and the other was untreated. The vessels were sparged continuously with nitrogen gas to maintain anaerobic conditions and were agitated at 75 rpm. On Day 0, the vessels were inoculated with a 1/10 volume (250 mL) of overnight cultures that were either treated with peptide or untreated, and that were the third transfer of the cultures, which made inoculation of the continuous cultures the fourth transfer. Triplicate samples were collected aseptically from each vessel immediately after inoculation and every 24 hours thereafter. The cultures were allowed to grow for 24 hours prior to beginning to feed fresh medium, and were maintained for 20 days each, without pH control. The optical density of each sample was measured immediately at 600 nm, the samples were centrifuged to remove cells, and the cell-free supernatants were frozen for later analysis. A representative experiment is shown in FIG. 19 and Tables 34 and 35.
Using the optimum peptide treatment level that was determined by the sequential batch transfer experiments, 2.5 L continuous culture studies were conducted. An untreated and a peptide-treated culture were grown in parallel, identical vessels using the same dilution rates for 20 days for each of the peptides BP110517 and BP1106213. […]

[1] = 50 nM BP110517, last five days of culture
[2] = 24 hour period preceding day 10
[3] = 24 hour period preceding day 11
[4] = 24 hour period preceding day 12
[5] = 24 hour period preceding day 13
[6] = 24 hour period preceding day 14
[7] = 24 hour period preceding day 15
[8] = 24 hour period preceding day 16
[9] = 24 hour period preceding day 17
[10] = 24 hour period preceding day 18
[11] = 24 hour period preceding day 19
[12] = 24 hour period preceding day 20

For SYPGWSW [peptide SEQ ID NO: 143], the “Butanol content compared with the control” value (50 nM BP110517, between days 5 and 9) was “significantly more butanol than the control”, the “Butanol content compared with the control” value [1] was “significantly greater than the control” and the “Butanol level lower than earlier in the culture period” value [1] was “roughly 75%”. For the same substance, the “Optical density (600 nm)” value (after day 13, recovered after day 17) was “less than 0.500”, the “Optical density (600 nm)” value (first 9 days) was “around 2.0” and the Productivity (24 hour period preceding day 1) was 0.53 g Butanol/L-h. It also gave a Yield (24 hour period preceding day 1) of 0.19 g Butanol/g Glucose, a Productivity (24 hour period preceding day 2) of −0.17 g Butanol/L-h and a Yield (24 hour period preceding day 2) of −0.28 g Butanol/g Glucose. For the same substance, the Productivity (24 hour period preceding day 3) was 0.07 g Butanol/L-h, the Yield (24 hour period preceding day 3) was 0.11 g Butanol/g Glucose and the Productivity (24 hour period preceding day 4) was 0.29 g Butanol/L-h. It also gave a Yield (24 hour period preceding day 4) of 0.46 g Butanol/g Glucose, a Productivity (24 hour period preceding day 5) of 0.24 g Butanol/L-h and a Yield (24 hour period preceding day 5) of 0.39 g Butanol/g Glucose. It also gave a Productivity (24 hour period preceding day 6) of 0.07 g Butanol/L-h, a Yield (24 hour period preceding day 6) of 0.11 g Butanol/g Glucose and a Productivity (24 hour period preceding day 7) of 0.14 g Butanol/L-h. It also gave a Yield (24 hour period preceding day 7) of 0.23 g Butanol/g Glucose, a Productivity (24 hour period preceding day 8) of 0.06 g Butanol/L-h and a Yield (24 hour period preceding day 8) of 0.10 g Butanol/g Glucose. It also gave a Productivity (24 hour period preceding day 9) of 0.07 g Butanol/L-h, a Yield (24 hour period preceding day 9) of 0.11 g Butanol/g Glucose and a Productivity [2] of 0.00 g Butanol/L-h. It also gave a Yield [2] of 0.01 g Butanol/g Glucose, a Productivity [3] of 0.20 g Butanol/L-h and a Yield [3] of 0.33 g Butanol/g Glucose. The Productivity [4] was 0.02 g Butanol/L-h, the Yield [4] was 0.04 g Butanol/g Glucose and the Productivity [5] was −0.11 g Butanol/L-h. For the same substance, the Yield [5] was −0.18 g Butanol/g Glucose, the Productivity [6] was 0.00 g Butanol/L-h and the Yield [6] was 0.00 g Butanol/g Glucose. For the same substance, the Productivity [7] was 0.03 g Butanol/L-h, the Yield [7] was 0.05 g Butanol/g Glucose and the Productivity [8] was 0.11 g Butanol/L-h. For the same substance, the Yield [8] was 0.17 g Butanol/g Glucose, the Productivity [9] was −0.01 g Butanol/L-h and the Yield [9] was −0.02 g Butanol/g Glucose. For the same substance, the Productivity [10] was 0.01 g Butanol/L-h, the Yield [10] was 0.01 g Butanol/g Glucose and the Productivity [11] was 0.06 g Butanol/L-h. The Yield [11] was 0.09 g Butanol/g Glucose, the Productivity [12] was 0.01 g Butanol/L-h and the Yield [12] was 0.01 g Butanol/g Glucose. For the same substance, the Butanol (day 0) was 0.9 ± 0.0 g/L, the Butanol (day 1) was 12.8 ± 4.4 g/L and the Butanol (day 2) was 5.5 ± 0.7 g/L. The Butanol (day 3) was 5.8 ± 1.7 g/L, the Butanol (day 4) was 11.2 ± 5.3 g/L and the Butanol (day 5) was 14.2 ± 0.3^c g/L. For the same substance, the Butanol (day 6) was 12.3 ± 0.6^c g/L, the Butanol (day 7) was 12.6 ± 0.0^c g/L and the Butanol (day 8) was 11.0 ± 0.4 g/L. The Butanol (day 9) was 9.9 ± 0.3^c g/L, the Butanol (day 10) was 7.6 ± 0.3 g/L and the Butanol (day 11) was 10.6 ± 0.7 g/L. For the same substance, the Butanol (day 12) was 8.5 ± 2.8 g/L, the Butanol (day 13) was 3.6 ± 0.2 g/L and the Butanol (day 14) was 2.7 ± 0.4 g/L. For the same substance, the Butanol (day 15) was 2.8 ± 0.6 g/L, the Butanol (day 16) was 4.7 ± 0.1^c g/L and the Butanol (day 17) was 3.3 ± 0.2^c g/L. The Butanol (day 18) was 2.7 ± 0.0^c g/L, the Butanol (day 19) was 3.4 ± 0.1^c g/L and the Butanol (day 20) was 2.7 ± 0.2^c g/L. For the same substance, the “Effect on butanol yield and productivity” value (BP110517, continuous cultures (summary of findings)) was “increased butanol yield and productivity”, the “Average Butanol” value (day 0) was 0.91 g/L and the “Average Glucose” value (day 0) was 66.1 g/L. The “Average Butanol” value (day 1) was 12.81 g/L, the “Average Glucose” value (day 1) was 28.2 g/L and the “Average Butanol” value (day 2) was 5.54 g/L. For the same substance, the “Average Glucose” value (day 2) was 3.3 g/L, the “Average Butanol” value (day 3) was 5.78 g/L and the “Average Glucose” value (day 3) was 3.1 g/L. For the same substance, the “Average Butanol” value (day 4) was 11.22 g/L, the “Average Glucose” value (day 4) was 2.4 g/L and the “Average Butanol” value (day 5) was 14.19 g/L. The “Average Glucose” value (day 5) was 0.0 g/L, the “Average Butanol” value (day 6) was 12.27 g/L and the “Average Glucose” value (day 6) was 0.0 g/L. The “Average Butanol” value (day 7) was 12.64 g/L, the “Average Glucose” value (day 7) was 0.4 g/L and the “Average Butanol” value (day 8) was 10.95 g/L. The “Average Glucose” value (day 8) was 0.0 g/L, the “Average Butanol” value (day 9) was 9.89 g/L and the “Average Glucose” value (day 9) was 2.3 g/L. The “Average Butanol” value (day 10) was 7.55 g/L, the “Average Glucose” value (day 10) was 13.4 g/L and the “Average Butanol” value (day 11) was 10.55 g/L. The “Average Glucose” value (day 11) was 6.1 g/L, the “Average Butanol” value (day 12) was 8.46 g/L and the “Average Glucose” value (day 12) was 0.0 g/L. For the same substance, the “Average Butanol” value (day 13) was 3.63 g/L, the “Average Glucose” value (day 13) was 2.0 g/L and the “Average Butanol” value (day 14) was 2.73 g/L. For the same substance, the “Average Glucose” value (day 14) was 14.2 g/L, the “Average Butanol” value (day 15) was 2.82 g/L and the “Average Glucose” value (day 15) was 23.8 g/L. For the same substance, the “Average Butanol” value (day 16) was 4.71 g/L, the “Average Glucose” value (day 16) was 29.2 g/L and the “Average Butanol” value (day 17) was 3.32 g/L. For the same substance, the “Average Glucose” value (day 17) was 30.4 g/L, the “Average Butanol” value (day 18) was 2.68 g/L and the “Average Glucose” value (day 18) was 40.1 g/L. The “Average Butanol” value (day 19) was 3.41 g/L, the “Average Glucose” value (day 19) was 33.8 g/L and the “Average Butanol” value (day 20) was 2.69 g/L. The “Average Glucose” value (day 20) was 40.3 g/L.
